The source of these data is publication PMC6272134, “Bioavailability Enhancement of Paclitaxel via a Novel Oral Drug Delivery System: Paclitaxel-Loaded Glycyrrhizic Acid Micelles” (Molecules, 2015).

Data set [1] deals with cell membranes. More on the design: method as in PMID 24870200. As to conditions: cited from earlier work.
The test system of data set [2] is CYP1A1. Details: method as in PMID 12584850. To be noted: rat liver microsomes; cited from earlier work. In general terms: Liver microsomes are vesicles of endoplasmic reticulum, rich in cytochrome P450 enzymes.
In data set [3] the test system is P-gp. More on the design: method as in PMID 16904803. As to conditions: in vitro study; cited from earlier work.
On the set-up of data set [4]: method as in PMID 19929808. As to conditions: cited from earlier work.
For data set [5], the system named is CYP2E1. Details: method as in PMID 12584850. To be noted: rat liver microsomes; cited from earlier work.
For data set [6], the system named is CYP3A. Details: method as in PMID 12584850. As to conditions: rat liver microsomes; cited from earlier work.
Details of data set [7]: method as in PMID 11879753. To be noted: cited from earlier work.
On the set-up of data set [8]: method as in PMID 7939764. As to conditions: cited from earlier work.
A short description of data set [9]: Phase-solubility test of PTX in GA / ethanol-water solutions. The data set is classed as physicochemical. The method, then:
The phase-solubility test was performed with a previously reported method. An excess quantity of PTX was taken into clean and dry vials containing 1 mL of various concentrations of GA solutions ([…]). […] Ultimately, the samples were filtered through 0.45 μm filters and the concentrations of PTX were detected by high performance liquid chromatography (HPLC; LC-20A, Shimadzu, Japan) (see Section 3.3.6.). All tests were repeated at least three times.

Molecules are shown by their SMILES. ≈ marks a conversion by molar mass, not a printed value. Where two headings read alike, the source gives them in different places.

What is called aqueous solubility is the concentration that dissolves in the medium under given conditions. A word on the solubility: it is the concentration that dissolves in the medium under given conditions.

For `CC1(C)[C@@H](O[C@H]2O[C@H](C(=O)O)[C@@H](O)[C@H](O)[C@H]2O[C@@H]2O[C@H](C(=O)O)[C@@H](O)[C@H](O)[C@H]2O)CC[C@]2(C)[C@H]3C(=O)C=C4[C@@H]5C[C@@](C)(C(=O)O)CC[C@]5(C)CC[C@@]4(C)[C@]3(C)CC[C@@H]12` [GA, Glycyrrhizic acid], in data set [1], the “increase of the permeability of cell membranes” value was “about 60%”. Further, the “inhibitor of CYP1A1” value in data set [2] is given as “inhibitor”. The “inhibition of the function of P-gp” value in data set [3] is reported as “inhibited the function of P-gp”. In addition, in data set [4], the critical micelle concentration is 10^−3 M. In addition, the “inhibitor of CYP2E1” value in data set [5] is “inhibitor”. Besides, the “inhibitor of CYP3A” value in data set [6] is recorded as “inhibitor”.

In the case of `CC(=O)O[C@H]1C(=O)[C@@]2(C)[C@H]([C@H](OC(=O)c3ccccc3)[C@]3(O)C[C@H](OC(=O)[C@H](O)[C@@H](NC(=O)c4ccccc4)c4ccccc4)C(C)=C1C3(C)C)[C@]1(OC(C)=O)CO[C@@H]1C[C@@H]2O` [PTX, Paclitaxel], the aqueous solubility in [7] is less than 1 µg/mL. Further, in data set [8], the oral bioavailability is on record as less than 2%. The solubility at 48 h in data set [9] (10 mM GA solution in water, aqueous with cosolvent or surfactant or cyclodextrin, thermodynamic from solid, water, in the presence of 10 mM GA, 25 °C, read-out: solubility of PTX) was 124 µg/mL; in data set [9] (7.5% ethanol in water with 10 mM GA, 25 °C, aqueous with cosolvent or surfactant or cyclodextrin, thermodynamic from solid, optimal ethanol percentage (7.5%) with GA (10 mM), read-out: PTX solubility), 823 ± 14.4 µg/mL (≈ 964 µM); in data set [9] (ethanol-water mixtures without GA, 0%, 5%, 7.5%, 10% and 25% ethanol in water, without GA, read-out: solubility of PTX in different percentages of ethanol), not above 30 µg/mL; in data set [9] (water, absence of GA, 25 °C, read-out: solubility of PTX in water), approximately 0.67 µg/mL (≈ 0.785 µM). In data set [9] (7.5% ethanol with GA vs solubility of PTX in water), the solubility increase entry is recorded as “more than 1,000 fold”.
